Laboratory results: patent US20090022803A1, “Oral Formulations For Delivery of Catecholic Butanes Including Ndga Compounds” (priority 2005, published 2009)

Assay: 40 mg/mL M4N/PEG 300 stability, visual appearance
Type: physicochemical
Details: for Visual Appearance: 40 mg/mL M4N/PEG 300
Protocol: The stability of 40 mg/mL M4N dissolved in 100% PEG 300 was evaluated up to 24 hours incubation at 30° C., 45° C. and 60° C. A stock 40 mg/mL M4N in PEG 300 was prepared at 60° C., following the procedure set forth in Example 18. Subsequently, aliquots were removed and incubated at the appropriate temperature. Samples were rotated at 450 rpm during the entire course of incubation. Visual observations and RP-HPLC data were collected throughout. […] The formation of crystals coincided with a loss of soluble M4N (Table 30). The 40 mg/mL M4N/PEG 300 samples incubated at 45° C. and 60° C. were stable after 24 hours incubation as assessed by visual observations and RP-HPLC analysis (Tables 29 and 30).

COc1ccc(C[C@@H](C)[C@@H](C)Cc2ccc(OC)c(OC)c2)cc1OC [Formulation M4N, meso-1,4-bis(3,4-dimethoxyphenyl)-2,3-dimethylbutane]
visual observation (40 mg/mL M4N/PEG 300, 6 hours at 30° C.): tiny crystals
visual observation (40 mg/mL M4N/PEG 300, 24 hours at 30° C.): even more crystals
Visual Appearance (30° C., 2 hours): Clear
Visual Appearance (30° C., 4 hours): Clear
Visual Appearance (30° C., 6 hours): Few tiny
Visual Appearance (30° C., 24 hours): Many tiny
Visual Appearance (45° C., 2 hours): Clear
Visual Appearance (45° C., 4 hours): Clear
Visual Appearance (45° C., 6 hours): Clear
Visual Appearance (45° C., 24 hours): Clear
Visual Appearance (60° C., 2 hours): Clear
Visual Appearance (60° C., 4 hours): Clear
Visual Appearance (60° C., 6 hours): Clear
Visual Appearance (60° C., 24 hours): Clear
